Publication PMC6212638, “In silico identification and biochemical characterization of the human dicarboxylate clamp TPR protein interaction network” (FEBS Open Bio, 2018)
Blank lines part the entries; values can stand above or below the molecule they belong to. Peptide text beside a SMILES is read from it.

T1: FKBP51 (Homo sapiens, UniProt Q13451)
T1 sequence (Q13451 1-457): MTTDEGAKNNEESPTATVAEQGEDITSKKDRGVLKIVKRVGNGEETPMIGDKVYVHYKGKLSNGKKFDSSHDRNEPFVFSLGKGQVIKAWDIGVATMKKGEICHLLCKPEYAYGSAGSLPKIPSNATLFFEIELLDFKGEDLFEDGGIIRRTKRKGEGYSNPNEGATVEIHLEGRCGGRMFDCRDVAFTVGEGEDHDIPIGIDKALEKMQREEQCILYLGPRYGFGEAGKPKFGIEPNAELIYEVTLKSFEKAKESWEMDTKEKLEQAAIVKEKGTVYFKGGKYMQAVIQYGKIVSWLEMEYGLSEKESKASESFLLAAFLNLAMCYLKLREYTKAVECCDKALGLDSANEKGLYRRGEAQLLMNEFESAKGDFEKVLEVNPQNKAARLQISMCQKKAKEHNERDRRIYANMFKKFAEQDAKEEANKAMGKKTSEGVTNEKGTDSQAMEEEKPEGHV

T2: DNAAF2 (human, UniProt Q9NVR5 1-837)
T2 construct: prey of the pull-down; also called dynein axonemal assembly factor 2; source: E. coli BL21, purified as GST fusion (GSTrap), GST removed with PreScission protease
T2 sequence (looked up): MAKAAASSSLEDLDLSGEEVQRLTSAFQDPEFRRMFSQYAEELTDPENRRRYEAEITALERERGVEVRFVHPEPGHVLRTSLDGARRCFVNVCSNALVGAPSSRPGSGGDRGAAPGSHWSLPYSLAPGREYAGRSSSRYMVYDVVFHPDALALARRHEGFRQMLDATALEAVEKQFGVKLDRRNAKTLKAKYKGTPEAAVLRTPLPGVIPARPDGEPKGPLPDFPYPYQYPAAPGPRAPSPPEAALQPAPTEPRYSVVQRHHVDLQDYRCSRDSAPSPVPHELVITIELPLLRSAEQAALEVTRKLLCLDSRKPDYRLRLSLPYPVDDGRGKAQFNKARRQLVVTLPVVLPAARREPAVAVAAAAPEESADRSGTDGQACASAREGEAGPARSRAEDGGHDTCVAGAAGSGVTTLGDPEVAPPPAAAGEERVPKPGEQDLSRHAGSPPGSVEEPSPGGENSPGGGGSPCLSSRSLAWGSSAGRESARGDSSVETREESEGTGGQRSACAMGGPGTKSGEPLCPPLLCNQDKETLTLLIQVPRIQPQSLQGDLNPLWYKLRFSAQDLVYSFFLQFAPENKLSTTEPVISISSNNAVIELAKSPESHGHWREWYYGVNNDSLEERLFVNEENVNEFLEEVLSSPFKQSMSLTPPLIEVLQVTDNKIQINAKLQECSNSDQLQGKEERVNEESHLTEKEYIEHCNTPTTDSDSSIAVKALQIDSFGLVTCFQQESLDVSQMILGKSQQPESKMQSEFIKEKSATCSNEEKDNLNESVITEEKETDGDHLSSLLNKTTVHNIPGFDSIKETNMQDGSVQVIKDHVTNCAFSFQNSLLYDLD

T3: NADSYN1 (human, UniProt Q6IA69 1-706)
T3 construct: prey of the pull-down; also called Nicotinamide adenine dinucleotide synthase 1; source: E. coli BL21, purified as GST fusion (GSTrap), GST removed with PreScission protease
T3 sequence (looked up): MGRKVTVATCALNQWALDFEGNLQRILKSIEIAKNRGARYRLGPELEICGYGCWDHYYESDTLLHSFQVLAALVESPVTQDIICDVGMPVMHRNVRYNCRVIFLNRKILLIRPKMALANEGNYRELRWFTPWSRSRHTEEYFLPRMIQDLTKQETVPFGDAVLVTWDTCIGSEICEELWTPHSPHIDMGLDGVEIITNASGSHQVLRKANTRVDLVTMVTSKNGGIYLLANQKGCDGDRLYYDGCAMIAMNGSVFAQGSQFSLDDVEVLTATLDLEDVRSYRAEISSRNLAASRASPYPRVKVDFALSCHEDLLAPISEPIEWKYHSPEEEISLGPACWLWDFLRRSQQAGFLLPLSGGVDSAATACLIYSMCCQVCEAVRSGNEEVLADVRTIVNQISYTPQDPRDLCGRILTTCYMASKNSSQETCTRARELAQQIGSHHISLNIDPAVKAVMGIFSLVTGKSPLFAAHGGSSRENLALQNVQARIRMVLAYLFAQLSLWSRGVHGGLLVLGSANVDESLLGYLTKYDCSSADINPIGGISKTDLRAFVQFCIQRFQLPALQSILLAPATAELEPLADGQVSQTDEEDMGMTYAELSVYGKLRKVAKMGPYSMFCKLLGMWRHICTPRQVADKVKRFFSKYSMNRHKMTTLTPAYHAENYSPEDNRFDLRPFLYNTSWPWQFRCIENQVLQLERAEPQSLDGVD

B1: GST–AIP (natural protein, human, UniProt O00170 1-330, looked up)
chain: MADIIARLREDGIQKRVIQEGRGELPDFQDGTKATFHYRTLHSDDEGTVLDDSRARGKPMELIIGKKFKLPVWETIVCTMREGEIAQFLCDIKHVVLYPLVAKSLRNIAVGKDPLEGQRHCCGVAQMREHSSLGHADLDALQQNPQPLIFHMEMLKVESPGTYQQDPWAMTDEEKAKAVPLIHQEGNRLYREGHVKEAAAKYYDAIACLKNLQMKEQPGSPEWIQLDQQITPLLLNYCQCKLVVEEYYEVLDHCSSILNKYDDNVKAYFKRGKAHAAVWNAQEAQADFAKVLELDPALAPVVSRELRALEARIRQKDEEDKARFRGIFSH
notes: bait of the GST pull-down; source: E. coli BL21, purified (GSTrap 4B, PD-10)
B2: GST–FKBP51 (natural protein, human, UniProt Q13451 1-457, looked up)
chain: T1 sequence (Q13451 1-457)
notes: as for B1
B3: Bcl-G (natural protein, human, UniProt Q9BZR8 1-327, looked up)
chain: MCSTSGCDLEEIPLDDDDLNTIEFKILAYYTRHHVFKSTPALFSPKLLRTRSLSQRGLGNCSANESWTEVSWPCRNSQSSEKAINLGKKKSSWKAFFGVVEKEDSQSTPAKVSAQGQRTLEYQDSHSQQWSRCLSNVEQCLEHEAVDPKVISIANRVAEIVYSWPPPQATQAGGFKSKEIFVTEGLSFQLQGHVPVASSSKKDEEEQILAKIVELLKYSGDQLERKLKKDKALMGHFQDGLSYSVFKTITDQVLMGVDPRGESEVKAQGFKAALVIDVTAKLTAIDNHPMNRVLGFGTKYLKENFSPWIQQHGGWEKILGISHEEVD
notes: Bcl-2-like protein 14 (Bcl-G), human, full-length cDNA clone; also called Bcl-2-like protein 14; source: E. coli BL21, purified as GST fusion (GSTrap), GST removed with PreScission protease

How the values were obtained:
[1] = test system: Hsp90–Tom70 interaction; assay: Proximity ligation assay (PLA) of Hsp90–Tom70 interaction in HEK293 cells; assay type: cell-based, human; conditions: non-fluorescent peptide, n = 3
Source text: (§1) P < 0.05 was considered to be statistically significant. Data are presented as mean ± SEM.
(§2) In subsequent experiments, non‐fluorescent peptides were used. […] Cell impermeable Hsp90 peptide served as a treatment control.

[2] = test system: HEK293 cells; conditions: N-terminally fluorescein-labeled peptides, 20 μM, fluorescence imaging
Source text: as §1

[3] = test system: Tom20–Tom70 interaction; assay: Mammalian two-hybrid assay (luciferase) of Tom20–Tom70 interaction in HEK293 cells; assay type: cell-based, human; conditions: peptide 20 μM added 4 h after transfection, 48 h, n = 3
Source text: (§3) Tom70 sequence was PCR amplified and subcloned into pACT vector of CheckMate™ mammalian two‐hybrid system (Promega, Madison, WI, USA) using SalI/NotI restriction sites, and Hsp90 and Tom20 DNA sequences were PCR amplified and subcloned into pBIND vector using SalI/NotI restriction sites. Tom70‐pACT/Hsp90‐pBIND and Tom70‐pACT/Tom20‐pBIND were co‐transfected with pLuc plasmid in a 1 : 1 : 1 molar ratio into HEK293 cells using Lipofectamine 3000 transfection reagent (Invitrogen, Carlsbad, CA, USA) according to the manufacturer's protocol. Triplicate samples in 96‐well cell culture plates Corning (Tewskbury, MA, USA) were used in each experiment. Hsp90, R9–Hsp90, Tom20 and R9–Tom20 peptides at concentration 20 μM were added 4 h after transfection. HEK293 cells were cultivated for 48 h, washed twice with PBS and lysed with PBS containing 1% Triton X‐100. Luciferase expression was detected using a luciferase assay kit from BioThema (Huddinge, Sweden) on a 96‐well plate reader from Perkin Elmer (Upplands Väsby, Stockholm, Sweden).
as §2

[4] = test system: Hsp90–Tom70 interaction; assay: Mammalian two-hybrid assay (luciferase) of Hsp90–Tom70 interaction in HEK293 cells; assay type: cell-based, human; conditions: peptide 20 μM added 4 h after transfection, 48 h, n = 3
Source text: as §3, §2

[5] = test system: FKBP51; conditions: cited from earlier work
Source text: Here in this study, we systematically searched the human protein database (https://www.ncbi.nlm.nih.gov/protein/) for the protein products containing Hsp70/Hsp90‐like sequence signatures at their C terminus. Sev ...

[6] = target: T1, FKBP51; assay: Dot-blot competition assay: HRP-conjugated peptide vs unlabeled peptide on immobilized FKBP51; conditions: HRP-conjugated peptide on immobilized dcTPR proteins
Experimental: Full‐length cDNA clones for respective proteins were obtained from IMAGE consortium (SourceBioScience, Nottingham, UK) and PCR amplified with forward and reverse primers (Table 1) containing overhangs with appropriate restriction sites and cloned into pGEX6 vectors (GE Healthcare, Uppsala, Sweden). Inserts were sequence verified, and the plasmids were transformed into BL21 Escherichia coli strain. Glutathione‐S‐transferase (GST) fusion proteins were purified from 1 L overnight culture after 2 h of induction with 1 mM IPTG. Cells were pelleted, resuspended in 1× PBS and sonicated 3 × 20 s on ice. EDTA and protease inhibitor cocktail were added to prevent proteolysis. The suspension was centrifuged for 30 min at 50 000 g to remove cell debris, and supernatant was loaded onto a 1 mL GSTrap™ 4B column (GE Healthcare). After column washing with 30 mL PBS, GST fusion proteins were eluted with 2.5 mL 10 mM glutathione in PBS. Eluate was passed through a PD‐10 column (GE Healthcare) to remove free glutathione. To prepare GST‐tag‐free proteins, we performed overnight cleavage at 4 °C with PreScission protease (GE Healthcare) followed by passage through a GSTrap column to remove free GST protein. Average yield from 1 L starting culture was 1–5 mg of purified proteins. Protein‐containing fractions were collected, checked with SDS/PAGE and kept at −20 °C.
Peptides were dissolved in HEPES‐KOH buffer pH 7.2 at concentration of 1 mg·mL^−1 and incubated with equimolar amounts of activated horseradish peroxidase (HRP) (Lightning‐link® HRP labeling kit cat. 701‐004, from Innova Biosciences) for 5 min. Reaction was quenched with 0.1 M Tris/HCl, pH 7.5 for 10 min and the products were passed through PD‐10 columns (GE Healthcare). Dot‐blot experiments were performed using GST‐tag‐free proteins applied to the nitrocellulose membrane. After blocking of membrane with 3% BSA in TBS‐T buffer for 1 h and subsequent wash with TBS‐T, HRP‐conjugated peptides (1 × 500 times dilution) were applied and incubated for 1 h. After subsequent washing (3 × 10 min, TBS‐T), membrane was dried and signals were quantified using a digital Fujifilm LAS3000 imager and LAS3000 software. In competition experiments, increasing concentrations of unlabeled peptides were co‐incubated with peptide–HRP conjugates.
Each peptide was separately coupled to HRP.

[7] = target: T2, DNAAF2; assay: pull-down; GST–AIP and GST–FKBP51 as bait, purified full-length and truncated proteins as prey; bound proteins probed by western blot with their antibodies; conditions: both partners purified
[8] = target: T3, NADSYN1; assay: as above; conditions: both partners purified
[9] = target: B2; assay: as above; conditions: both partners purified
[10] = target: B1; assay: as above; conditions: both partners purified

Molecule: CC(C)C[C@H](NC(=O)[C@H](CO)NC(=O)[C@H](CCC(N)=O)NC(=O)[C@H](C)NC(=O)[C@H](CCCNC(=N)N)NC(=O)[C@H](CCCNC(=N)N)NC(=O)[C@H](CCCNC(=N)N)NC(=O)[C@H](CCCNC(=N)N)NC(=O)[C@H](CCCNC(=N)N)NC(=O)[C@H](CCCNC(=N)N)NC(=O)[C@H](CCCNC(=N)N)NC(=O)[C@H](CCCNC(=N)N)NC(=O)[C@@H](N)CCCNC(=N)N)C(=O)N[C@@H](C)C(=O)N[C@@H](CCC(=O)O)C(=O)N[C@@H](CC(=O)O)C(=O)N[C@@H](CC(=O)O)C(=O)N[C@H](C(=O)N[C@@H](CCC(=O)O)C(=O)O)C(C)C [R9–Tom20] (H-RRRRRRRRRAQSLAEDDVE-OH)
- decrease of Hsp90–Tom70 interaction signal (PLA) [1]: failed to inhibit
- fluorescein staining of HEK293 cells (peptide translocation into the cells) [2]: resulted in HEK293 cells staining
- inhibition of Tom20–Tom70 interaction (mammalian two-hybrid, luciferase) [3]: sensitive
- inhibition of Hsp90–Tom70 interaction (mammalian two-hybrid, luciferase) [4]: inhibited only by addition of R9–Hsp90 peptide

- signal of HRP-conjugated peptide in dot-blot binding assay [6]: did not produce any signal
Molecule: H-DDDDDDDDDD-OH [poly‐D, reference compound]
- interaction with FKBP51 [5]: no interaction was observed

Molecule: B1
- binding result [7]: binds
- binding result [8]: binds

Molecule: B2
- binding result [7]: binds
- binding result [8]: binds

Molecule: B3
- binding result [9]: binds
- binding result [10]: binds
